Like-named read-outs stand apart in the source and are kept apart here. Marks after values point to notes of the source that are not given here.
Assays:
[1] = assay type: in vivo, women; conditions: for AUC(0-t): female, human, plasma; for AUC0–24h Ratio Third Trimester/Postpartum GMR (90%CI) / Ctrough Ratio Third Trimester/Postpartum GMR (90%CI): paired data only
[2] = assay type: in vivo, women
[3] = Combined PANNA and iTAP comparison of pregnancy effect on TFV exposure; assay type: in vivo; conditions: all groups of women (HIV with r/PI, HIV without r/PI, HBV monoinfection)
[4] = healthy subjects, fed state; ref registration package; cited from earlier work
[5] = women with HBV, TDF monotherapy, paired data only

Which results are given for `C[C@H](Cn1cnc2c(N)ncnc21)OCP(=O)(O)O` [TFV, tenofovir]?
AUC(0-t) ([1]; oral): 1840 ng·h/mL; AUC(0-t) ([1]; oral, AUC0–24h Postpartum GM (95%CI), women with HIV, all patients (n = 59), postpartum): 2840 ng·h/mL; AUC(0-t) ([1]; po): 1860 ng·h/mL; Ctrough Postpartum GM (95%CI) ([1]; women with HIV on non-r/PI (n = 27), postpartum): 0.056 (0.050–0.064) µg/mL; Ctrough Third Trimester GM (95%CI) ([1]; women with HIV on non-r/PI (n = 27)): 0.038 (0.033–0.043) µg/mL; AUC0–24h Ratio Third Trimester/Postpartum GMR (90%CI) ([1]; women with HIV on non-r/PI): 0.74 (0.68–0.82); Ctrough Ratio Third Trimester/Postpartum GMR (90%CI) ([1]; women with HIV on non-r/PI): 0.68 (0.62–0.75); Ctrough decrease by pregnancy, on average ([1]; women with HIV on non-r/PI-based regimens): 32%; AUC0–24h lower during the third trimester compared to 1 month postpartum ([1]; women with HIV on non-r/PI-based regimens, intraindividual): 26%; Ctrough Postpartum GM (95%CI) ([1]; women with HIV on r/PI (n = 32), postpartum): 0.063 (0.053–0.075) µg/mL; Ctrough Third Trimester GM (95%CI) ([1]; women with HIV on r/PI (n = 32)): 0.048 (0.043–0.054) ^b , ^c µg/mL; AUC0–24h Ratio Third Trimester/Postpartum GMR (90%CI) ([1]; women with HIV on r/PI): 0.76 (0.69–0.83); Ctrough Ratio Third Trimester/Postpartum GMR (90%CI) ([1]; women with HIV on r/PI): 0.81 (0.69–0.94); Ctrough decrease by pregnancy, on average ([1]; women with HIV on r/PI-based regimens): 19%; Ctrough Postpartum GM (95%CI) ([1]; women with HIV, all patients (n = 59), postpartum): 0.059 (0.053–0.066) µg/mL; Ctrough Third Trimester GM (95%CI) ([1]; women with HIV, all patients (n = 59)): 0.043 (0.039–0.047) µg/mL; AUC0–24h Ratio Third Trimester/Postpartum GMR (90%CI) ([1]; women with HIV, all patients): 0.75 (0.70–0.80); Ctrough Ratio Third Trimester/Postpartum GMR (90%CI) ([1]; women with HIV, all patients): 0.74 (0.67–0.81); AUC(0-t) ([2]; female, human, plasma, po): 2350 ng·h/mL; Ctrough decrease by pregnancy, on average ([2]; women with HBV): 31%; AUC0–24h lower during the third trimester compared to 1 month postpartum ([2]; women with HBV receiving TDF monotherapy, intraindividual): 21%; Ctrough Postpartum GM (95%CI) ([2]; women with HBV, TDF monotherapy (n = 137), 1 month postpartum): 0.058 (0.055–0.061) µg/mL; Ctrough Third Trimester GM (95%CI) ([2]; women with HBV, TDF monotherapy (n = 137), third trimester (32 weeks)): 0.039 (0.038–0.042) µg/mL; AUC0–24h Ratio Third Trimester/Postpartum GMR (90%CI) [2, 5]: 0.79 (0.78–0.80); Ctrough Ratio Third Trimester/Postpartum GMR (90%CI) [2, 5]: 0.69 (0.68–0.71); TFV exposure decrease during the third trimester of pregnancy [3]: approximately 25%; mean AUC0–24h [4]: 2460 ± 830 ng·h/mL

— PMC7891399 (Journal of Clinical Pharmacology, 2020)
